Assay results taken from PMC8058344, “ARIH1 signaling promotes anti-tumor immunity by targeting PD-L1 for proteasomal degradation” (Nature Communications, 2021).

Experiments:
CMET = CMET (Homo sapiens, UniProt P08581); assay: In vitro kinase specificity profiling; assay type: biochemical
4T1 tumor xenograft = 4T1 tumor xenograft model with ES-072 and/or anti-CTLA4; assay type: in vivo, BALB/c mice
Method: Fig. 6 ARIH1 promotes anti-tumor immunity via PD-L1 degradation. a Immunoblot of PD-L1 and ARIH1 (HA) in H1975 cells transfected with HA-ARIH1 (WT or Y392C); HA-tagged empty vector (HA-EV) was transfected as a negative control. b Co-IP analysis for the interaction of K48-ubiquitin, ARIH1 (HA), and PD-L1 in HEK293T cells transfected with Flag-PD-L1 and HA-ARIH1 (WT or Y392C) in the presence of 10 μM MG132 for 6 h. c 4T1 cells were infected with an empty vector (CTRL) or two different ARIH1-overexpressing lentiviral preparations (OE#1 and OE#2). ARIH1 and PD-L1 levels were determined by immunoblotting. d–f Tumor growth (d, e) of CTRL (n = 10) and ARIH1-OE cells (n = 11) in BALB/c mice and final tumor weights (f). […]
For xenograft model with 4T1 cells and combination therapy with ES-072 and anti-CTLA4, 5 × 10^5 4T1 cells suspended in 50 μL PBS and Matrigel (1 : 1 v/v) were injected into the fourth breast fat pad. On days 3 after injection, tumor size was measured and calculated by using the formula 1/2 × length × width^2. […]
Excised tumors were digested in collagenase/hyaluronidase and DNase at 37 °C for 45 min to make cell suspension with a 45 μm filter (BD Bioscience). […] Data acquisition was performed using flow cytometry (Beckman Coulter Cytoflex) and data were analyzed using CytExpert V2.3 software. […]

JAK2 = JAK2 (Homo sapiens, UniProt O60674); assay: In vitro kinase specificity profiling; assay type: biochemical
Chain of JAK2 (O60674 whole entry): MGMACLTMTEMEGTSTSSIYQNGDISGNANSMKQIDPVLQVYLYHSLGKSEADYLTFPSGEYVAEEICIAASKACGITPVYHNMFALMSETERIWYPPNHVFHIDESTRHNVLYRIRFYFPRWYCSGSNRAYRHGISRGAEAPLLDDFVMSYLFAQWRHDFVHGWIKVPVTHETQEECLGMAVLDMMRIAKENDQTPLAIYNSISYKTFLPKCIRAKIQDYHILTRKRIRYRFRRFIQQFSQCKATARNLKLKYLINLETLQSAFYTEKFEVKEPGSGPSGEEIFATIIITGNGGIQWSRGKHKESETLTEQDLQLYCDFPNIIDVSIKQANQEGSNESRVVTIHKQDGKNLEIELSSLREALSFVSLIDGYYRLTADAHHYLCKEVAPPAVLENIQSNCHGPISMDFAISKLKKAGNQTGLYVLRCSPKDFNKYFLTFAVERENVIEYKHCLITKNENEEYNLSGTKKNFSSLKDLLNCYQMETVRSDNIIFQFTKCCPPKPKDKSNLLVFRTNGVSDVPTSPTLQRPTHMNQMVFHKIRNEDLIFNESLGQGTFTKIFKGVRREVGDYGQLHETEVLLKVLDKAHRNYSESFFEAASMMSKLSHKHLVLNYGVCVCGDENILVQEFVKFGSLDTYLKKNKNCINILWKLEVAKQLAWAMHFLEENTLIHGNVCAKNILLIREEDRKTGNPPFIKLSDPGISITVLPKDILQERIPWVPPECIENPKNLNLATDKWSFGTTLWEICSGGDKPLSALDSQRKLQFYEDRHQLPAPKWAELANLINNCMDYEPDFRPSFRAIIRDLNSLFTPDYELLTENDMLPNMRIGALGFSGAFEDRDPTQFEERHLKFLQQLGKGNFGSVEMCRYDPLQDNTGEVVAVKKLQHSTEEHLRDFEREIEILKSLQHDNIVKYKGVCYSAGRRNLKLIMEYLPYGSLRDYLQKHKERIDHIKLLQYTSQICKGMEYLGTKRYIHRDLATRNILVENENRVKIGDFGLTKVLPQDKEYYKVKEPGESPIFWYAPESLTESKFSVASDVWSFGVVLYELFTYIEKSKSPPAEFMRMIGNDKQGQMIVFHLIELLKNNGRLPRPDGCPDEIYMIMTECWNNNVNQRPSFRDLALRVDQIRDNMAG

Chain of CMET (P08581 25-1390): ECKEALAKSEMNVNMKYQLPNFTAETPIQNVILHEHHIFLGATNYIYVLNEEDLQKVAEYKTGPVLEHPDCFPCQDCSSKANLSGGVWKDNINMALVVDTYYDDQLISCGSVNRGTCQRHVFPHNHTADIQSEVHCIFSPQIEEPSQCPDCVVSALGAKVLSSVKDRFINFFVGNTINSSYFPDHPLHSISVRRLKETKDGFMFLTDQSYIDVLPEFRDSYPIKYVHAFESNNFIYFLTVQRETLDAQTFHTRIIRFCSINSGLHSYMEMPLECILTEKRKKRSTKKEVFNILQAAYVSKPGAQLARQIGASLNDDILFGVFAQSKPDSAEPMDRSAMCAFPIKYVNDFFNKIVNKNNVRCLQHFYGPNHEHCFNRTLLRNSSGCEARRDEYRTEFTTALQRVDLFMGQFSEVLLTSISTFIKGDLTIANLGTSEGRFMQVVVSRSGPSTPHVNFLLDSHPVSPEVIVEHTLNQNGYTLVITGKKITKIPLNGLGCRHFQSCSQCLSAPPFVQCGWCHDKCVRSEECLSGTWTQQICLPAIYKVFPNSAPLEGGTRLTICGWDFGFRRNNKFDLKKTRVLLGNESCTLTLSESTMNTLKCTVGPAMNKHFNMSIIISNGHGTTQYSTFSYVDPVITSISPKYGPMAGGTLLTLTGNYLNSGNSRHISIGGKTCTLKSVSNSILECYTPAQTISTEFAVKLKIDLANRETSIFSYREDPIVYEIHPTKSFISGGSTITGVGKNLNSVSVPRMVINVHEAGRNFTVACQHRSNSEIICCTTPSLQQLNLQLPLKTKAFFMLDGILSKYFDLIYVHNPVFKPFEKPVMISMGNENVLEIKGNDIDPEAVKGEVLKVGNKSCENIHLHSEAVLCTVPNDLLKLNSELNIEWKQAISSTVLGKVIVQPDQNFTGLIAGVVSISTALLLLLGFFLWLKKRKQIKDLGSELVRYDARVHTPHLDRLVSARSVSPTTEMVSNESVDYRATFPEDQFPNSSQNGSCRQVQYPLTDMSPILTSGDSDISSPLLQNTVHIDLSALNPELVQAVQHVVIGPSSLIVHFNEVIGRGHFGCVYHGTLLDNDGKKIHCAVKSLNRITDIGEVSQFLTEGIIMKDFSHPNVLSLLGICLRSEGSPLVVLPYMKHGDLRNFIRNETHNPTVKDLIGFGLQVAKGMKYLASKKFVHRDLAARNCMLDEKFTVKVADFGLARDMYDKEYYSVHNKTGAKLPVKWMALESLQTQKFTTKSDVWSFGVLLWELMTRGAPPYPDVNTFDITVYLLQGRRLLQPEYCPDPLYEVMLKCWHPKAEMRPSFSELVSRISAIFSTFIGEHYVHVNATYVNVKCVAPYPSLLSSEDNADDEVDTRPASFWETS

- IC50 (CMET): > 10 µM
- IC50 (JAK2): 4.96 µM
Compound: C=CC(=O)Nc1cccc(Nc2nc(Nc3ccc(N4CCN(C)CC4)nc3OC)ncc2C(F)(F)F)c1 [ES-072]
- tumor growth (4T1 tumor xenograft; 4T1 cells in BALB/c mice, ES-072 60 mg/kg i.g. daily, anti-CTLA4 100 μg i.p. day 7, 10, 13): significantly decreased
- PD-L1 levels in tumor lysates (4T1 tumor xenograft; 4T1 tumors, western blotting): decreased
